Measured values from patent US5663205A, “Pharmaceutical composition for use in glaucoma treatment” (Senju Pharmaceutical Co. Ltd., priority 1992, dated 1997).

How the values were obtained:
β-adrenergic = conditions: cited from earlier work
[1] = test system: Hypertensive Intraocular Pressure Induced by Water Loading; test: Test Example 4: hypertensive intraocular pressure induced by water loading, white rabbits; type: in vivo; conditions: 0.5% aqueous solution
Description: Intraocular Pressure Reducing Activity of 0.5% Aqueous Solution of Amosulalol Hydrochloride on Hypertensive Itraocular Pressure Induced by Water Loading White Rabbits
With 5 male white rabbits weighing about 2 kg used as test animals, 50 μl of 0.5% aqueous solution of amosulalol hydrochloride was applied to one eye of each rabbit, with 50 μl of physiological saline being given to the other, and drinking water, 60 ml/kg (37° C.) was loaded by means of an oral probe 30 min later. Intraocular pressure was measured for both eyes using PTG before instillation as well as before water loading and 0.5, 1, 2 and 4 hours after the same.
FIG. 6 is a graph showing the intraocular pressure reducing activity of 0.5% aqueous solution of amosulalol hydrochloride on hypertensive intraocular pressure induced by water loading in white rabbits with time (hour) after instillation taken as abscissa and intraocular pressure (mmHg) as ordinate; each value in mean ± S.E. (number of cases is […]).

cornea = test: Test Example 7 (2)(d): observation on fluorescein-dyed spots of the cornea; type: in vivo, Japanese white rabbits; conditions: 1% and 0.5% ophthalmic solutions, 28 days
Description: (2) Ocular local toxicity test in rabbits of 1.0% and 0.5% ophthalmic solutions of amosulalol hydrochloride by consecutive instillation for 28 days: With 15 male Japanese white rabbits divided into 3 groups each consisting of 5 rabbits, 1.0% and 0.5% ophthalmic solutions of amosulalol hydrochloride as well as physiological saline as a control were applied in one drop (0.05 ml) per time to the right eye of each rabbit alone, four times a day at a regular interval of 2.5 hours, for 28 days consecutively with the left eye being left untreated. (d) Observation on fluorescein-dyed spots of the cornea: Before instillation of 1.0% and 0.5% ophthalmic solutions of amosulalol hydrochloride as well as on the day (Day 1) of initiating the instillation and on the 2nd, 4th, 7th, 14th, 21st, 28th days after initiating the instillation but each time after completion of such instillation, and on the morning of the last instillation (29th day), 10 μl of 0.1% aqueous fluorescein solution was applied topically to the eyes of each test animal, and observation was performed on the abrasion of the corneal epithelial cells with a photo-slit lamp.

[2] = test system: Normal Intraocular Pressure; test: Test Example 2 (1): intraocular pressure reducing activity on normal intraocular pressure, pigmented rabbits; type: in vivo, pigmented rabbits (Dutch belted rabbits)
Description: Intraocular Pressure Reducing Activity of Amosulalol Hydrochloride on Normal Intraocular Pressure in Pigmented Rabbits Forty (40) male pigmented rabbits (Dutch belted rabbits) weighing about 2 kg, after having been confirmed to be free from ocular abnormalities, were bred in a breeding room maintained at a temperature of 24± 4° C. and at a relative humidity of 55± 15%, while they were fed solid food (Labo RG-RO, manufactured by Nihon Nohsan Kogyo K.K.) at a daily rate of 100 g per rabbit and allowed free access to tap water as drinking water. As a test drug, amosulalol hydrochloride was processed into 0.05%, 0.5% and 1.0% aqueous solutions which were used in the test, and 0.5% timolol maleate ophthalmic solution [Timoptol (registered trademark): Ban-yu Pharmaceutical Co.] and physiological saline were used as a positive control drug and a control substance, respectively. (1) Measurement of intraocular pressure: Forty (40) rabbits were divided into five groups. each consisting of 8 heads, and 50 μl of test drug as well as the control drug and physiological saline were applied topically to one eye each of the individual rabbits, with the other being left untreated. Before instillation and 0.5, 1, 2, 3, 4, 6 and 8 hours after topical application respectively, intraocular pressure for both eyes of each rabbit was measured using PTG. Time-course changes of intraocular pressure measurements taken with the eyes treated by instillation of each of the test drugs, control drug and physiological saline, are illustrated in FIGS. 2 (for treated eyes) and 3 (for non-treated eyes), respectively, with time (hour) after instillation taken as abscissa and intraocular pressure (mmHg) as ordinate; each value in mean ± S.E. (the number in each case is 8). The signs "a", "b", "c", "d" and "e" designate physiological saline, 0.05% aqueous solution of amosulalol hydrochloride, 0.5% aqueous solution of amosulalol hydrochloride, 1.0% aqueous solution of amosulalol hydrochloride and 0.5% solution of timolol maleate, respectively.

pupil diameter = test: Test Example 1 (2): pupil diameter, pigmented rabbits; type: in vivo, pigmented rabbits (Dutch belted rabbits); conditions: treated eyes, 0.5 to 6 hours after topical application
Description: Male pigmented rabbits (Dutch belted rabbits) weighing about 2 kg, after having been confirmed to be free from ocular abnormalities; were bred in a breeding room maintained at a temperature of 24± 4° C. and at a relative humidity of 55± 15%, while they were given solid food (Labo RG-RO manufactured by Nihon Nohsan Kogyo K.K.) at a daily rate of 100 g per rabbit and allowed free access to tap water as drinking water. As a test drug, amosulalol hydrochloride was processed into 0.05% (hereinafter, the term "%" is to be understood to designate "w/v %") and 1.0% aqueous solutions which were used in the test, and 0.5% timolol maleate ophthalmic solution [Timoptol (registered trademark): Ban-yu Pharmaceutical Co.] and physiological saline were used as a positive control drug and a control substance, respectively. (2) Measurement of pupil diameter: With each of the rabbits as used under the above item (1), pupil diameter was measured for both eyes using a micrometer caliper, before instillation and 0.5, 1, 2, 3, 4, and 6 hours after topical application of the individual test drugs and physiological saline, respectively.

COc1ccccc1OCCNCC(O)c1ccc(C)c(S(N)(=O)=O)c1.Cl (stereo not drawn) [amosulalol hydrochloride, 5-[1-hydroxy-2-[2-(2-methoxyphenoxy)ethylamino]ethyl]-2-methylbenzenesulfonamide hydrochloride]
β-adrenergic blocking activity (β-adrenergic): exhibit both α-adrenergic and β-adrenergic blocking activities | increase in intraocular pressure after water loading ([1]; 30 min after water loading, physiological saline 8.7 mmHg): 3.4 mmHg | effect on increase in intraocular pressure compared with physiological saline ([1]; water loading): significantly reduced the increase in intraocular pressure | observation of fluorescein-dyed spots in the cornea (cornea): no abnormalities | maximum drop in intraocular pressure ([2]; 0.05% aqueous solution, treated eyes, 2 hours after instillation): 3.6 mmHg | intraocular pressure reducing activity compared with 0.5% timolol maleate ophthalmic solution ([2]; 0.05%, normal eyes): more potent intraocular pressure reducing activity | maximum decrease in intraocular pressure ([2]; 0.5% aqueous solution, treated eyes, 2 hours after topical application): 6.2 mmHg | significant drop in intraocular pressure until (time after topical application) ([2]; 0.5% aqueous solution, treated eyes, from 30 min): 4 h | maximum decrease in intraocular pressure ([2]; 1.0% aqueous solution, treated eyes, 3 hours after instillation): 9.0 mmHg | decrease in intraocular pressure sustained until (time after instillation) ([2]; 1.0% aqueous solution, treated eyes, sustained from 30 min after instillation): 6 h | change in intraocular pressure of the other, non-treated eyes ([2]; non-treated eyes (FIG. 3)): no significant change | change in pupil diameter (pupil diameter): no significant change in the pupil diameter
